Measured values reported in the supplement of paper PMC12350171.

How the values were obtained:
[1] = system: Yersinia pseudotuberculosis; assay: IC25 growth inhibition; higher = less potent
How it was run: (§1)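 Overnight monocultures grown in mGAM were moved into pre-reduced plates containing twofold drug dilutions, at a starting OD578 of 0.01 with 1% DMSO (or water). Plates were kept anaerobic and read hourly at OD578 in a plate reader, with at least three biological replicates. For each concentration, the median area under the growth curve was made monotonic, and IC25 was the lowest concentration whose median fell below a cutoff, reported as a tested interval. That cutoff was 0.75.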

[2] = system: Clostridium bolteae; assay: IC25 growth inhibition; higher = less potent
How it was run: as §1

[3] = system: Parabacteroides merdae; assay: IC25 growth inhibition; higher = less potent
How it was run: as §1

[4] = system: Streptococcus salivarius; assay: IC25 growth inhibition; higher = less potent
How it was run: as §1

[5] = system: Bacteroides vulgatus; assay: IC25 growth inhibition; higher = less potent
How it was run: as §1

[6] = system: Bacteroides fragilis NT; assay: IC25 growth inhibition; higher = less potent
How it was run: as §1

[7] = system: Clostridium ramosum; assay: IC25 growth inhibition; higher = less potent
How it was run: as §1

[8] = system: Bacteroides uniformis; assay: IC25 growth inhibition; higher = less potent
How it was run: as §1

[9] = system: Bacteroides thetaiotaomicron; assay: IC25 growth inhibition; higher = less potent
How it was run: as §1

[10] = system: Vibrio cholerae; assay: IC25 growth inhibition; higher = less potent
How it was run: as §1

[11] = system: Clostridium saccharolyticum; assay: IC25 growth inhibition; higher = less potent
How it was run: as §1

[12] = system: Salmonella enterica typhimurium; assay: IC25 growth inhibition; higher = less potent
How it was run: as §1

[13] = system: Collinsella aerofaciens; assay: IC25 growth inhibition; higher = less potent
How it was run: as §1

[14] = system: Escherichia coli ED1a; assay: IC25 growth inhibition; higher = less potent
How it was run: as §1

[15] = system: Roseburia intestinalis; assay: IC25 growth inhibition; higher = less potent
How it was run: as §1

[16] = system: Yersinia enterocolitica WA-314; assay: IC25 growth inhibition; higher = less potent
How it was run: as §1

[17] = system: Eubacterium rectale; assay: IC25 growth inhibition; higher = less potent
How it was run: as §1

[18] = system: Dorea formicigenerans; assay: IC25 growth inhibition; higher = less potent
How it was run: as §1

[19] = system: Streptococcus parasanguinis; assay: IC25 growth inhibition; higher = less potent
How it was run: as §1

[20] = system: Shigella flexneri; assay: IC25 growth inhibition; higher = less potent
How it was run: as §1

[21] = system: Clostridium perfringens; assay: IC25 growth inhibition; higher = less potent
How it was run: as §1

[22] = system: Ruminococcus gnavus; assay: IC25 growth inhibition; higher = less potent
How it was run: as §1

[23] = system: Coprococcus comes; assay: IC25 growth inhibition; higher = less potent
How it was run: as §1

[24] = system: Fusobacterium nucleatum subsp. Nucleatum; assay: IC25 growth inhibition; higher = less potent
How it was run: as §1

[25] = system: Com21 synthetic gut community; assay: community biomass OD578 after 24 h drug treatment relative to untreated (fraction of untreated control); higher = more community growth; conditions: community: Com21 (Com20 + E. coli ED1a)
Protocol: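 Com21 (Com20 plus E. coli ED1a) was treated with drug for 24 h under anaerobic conditions in mGAM. Community OD578 was then measured and normalised to untreated Com21; mean of 3 biological replicates.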

[26] = drug pretreatment concentration 10 µM
[27] = drug pretreatment concentration 20 µM
[28] = drug pretreatment concentration 40 µM
[29] = drug pretreatment concentration 80 µM
[30] = drug pretreatment concentration 160 µM
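Throughout, for IC25 growth inhibition: lowest concentration where monotonic median growth AUC falls below 0.75 of drug-free control.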

Row | SMILES | IC25 growth inhibition [1] [µM] | IC25 growth inhibition [2] [µM] | IC25 growth inhibition [3] [µM] | IC25 growth inhibition [4] [µM] | IC25 growth inhibition [5] [µM] | IC25 growth inhibition [6] [µM] | IC25 growth inhibition [7] [µM] | IC25 growth inhibition [8] [µM] | IC25 growth inhibition [9] [µM] | IC25 growth inhibition [10] [µM] | IC25 growth inhibition [11] [µM] | IC25 growth inhibition [12] [µM] | IC25 growth inhibition [13] [µM] | IC25 growth inhibition [14] [µM] | IC25 growth inhibition [15] [µM] | IC25 growth inhibition [16] [µM] | IC25 growth inhibition [17] [µM] | IC25 growth inhibition [18] [µM] | IC25 growth inhibition [19] [µM] | IC25 growth inhibition [20] [µM] | IC25 growth inhibition [21] [µM] | IC25 growth inhibition [22] [µM] | IC25 growth inhibition [23] [µM] | IC25 growth inhibition [24] [µM] | community biomass OD578 [25, 26] | community biomass OD578 [25, 27] | community biomass OD578 [25, 28] | community biomass OD578 [25, 29] | community biomass OD578 [25, 30]
1 | CCOC1O[C@H]([C@@H](COCc2ccccc2)OCc2ccccc2)[C@H](OCc2ccccc2)[C@H]1O (stereo partly drawn) [Tribenoside] | > 40 | > 80 | > 40 | > 80 | > 40 | > 40 | > 40 | > 40 | > 40 | > 40 | > 80 | > 40 | > 40 | > 20 | > 80 | ≤ 160 | > 40 | > 20 | > 40 | > 40 | > 80 | > 40 | > 40 | > 40 | 0.995 | 0.955 | 0.976 | 0.945 | 0.947
2 | COc1cc(C(=O)NS(=O)(=O)c2ccccc2C)ccc1Cc1cn(C)c2ccc(NC(=O)OC3CCCC3)cc12 [Zafirlukast] | > 80 | ≤ 80 | ≤ 40 | ≤ 10 | ≤ 40 | ≤ 80 | ≤ 10 | ≤ 80 | ≤ 80 | > 80 | ≤ 80 | > 80 | ≤ 80 | > 160 | ≤ 20 | > 80 | ≤ 80 | ≤ 40 | ≤ 20 | > 160 | ≤ 10 | ≤ 20 | ≤ 20 | > 80 | 0.904 | 0.876 | 0.825 | 0.81 | 0.841
